Data reported in patent US7604947B2, “Detection and modulation of cancer stem cells” (Cornell Research Foundation, Inc., priority 2004, dated 2009).
Entries after “also recorded” stand apart in the source; their conditions may differ.

Experiments:
human REX-1 protein [1] = assay: Western blot of human REX-1 protein after retinoic acid treatment, HEKa cells; assay type: cell-based; settings: RA 1 μM for 48 hours
Description: (§1) The following human carcinoma and leukemia cell lines were maintained as directed by the ATCC: breast cancer cells: MCF-7, MDA-MB-231, MDA-MB-453, MDA-MB-468, SK-BR3 and HS578T; prostate cancer cells: LnCAP; skin cancer cells: SCC-12, SCC-13; kidney cancer cells: SK-39; bladder cancer cells: HTB1, HT1376, HTB9; oral cavity (head and neck) cancer: SCC-4, SCC-9, SCC-25, SCC-15; leukemia cells: HL-60, NB4 and NTERA2 teratocarcinoma cells. Normal human mammary (HMEC); renal proximal tubule epithelial cells (RPTE); prostate epithelial cells (PrEC), keratinocytes (NHEK) and lung (NHBE, SAEC) epithelial cells were grown as directed by the supplier (Cambrex, Walkersville, Md.). Normal human keratinocytes were also purchased from Cascade Biologics (Portland, Oreg.) and cultured as directed. Non-tumorous bladder cancer samples were provided by Dr. Stephen Boorjian (Weill Medical College, Cornell University, NY, N.Y.) and are as described in Boorjian, S, Tickoo, S K, Mongan, N P et al. Reduced Lecithin:Retinol Acyltransferase (LRAT) Expression Correlates with Increased Pathologic Tumor Stage in Bladder Cancer. Clinical Cancer Research 2004; 10:In press. Normal and All-trans-retinoic acid (RA) (Sigma, St. Louis, Mo.) was dissolved in ethanol and used at a final concentration of 20 nM or 1 μM as indicated in the descriptions of the figures. […]

hRex1 = assay: RT-PCR of hRex1 expression after retinoic acid treatment; assay type: cell-based, human; settings: MDA-MB-468 cells
human REX-1 protein [2] = assay: Western blot of human REX-1 protein after retinoic acid treatment, MDA-MB-468 cells; assay type: cell-based; settings: RA 1 μM for 48 hours
Description: as §1

[3] = tested on: polyclonal rabbit anti-human REX-1 antibody; assay: Immunohistochemistry peptide competition of anti-REX-1 antibody staining in normal renal parenchyma; assay type: binding; settings: 1 μg/mL free peptide, normal renal parenchyma sections
Description: Paraffin-embedded sections. Five micron tissue sections were cut from the patient blocks, and the sections were deparaffinized in Histoclear™(National Diagnostics, Atlanta, Ga.) followed by rehydration in a graded series of ethanol. Antigen retrieval was performed by heat with the Antigen Unmasking Solution (Vector Laboratories, Burlingame, Calif.) in a pressure cooker for 8 minutes. A 3% solution of H2O2 was used to quench the endogenous peroxidase activity (15 minute incubation). […] This was followed by incubation with the affinity-purified, polyclonal rabbit antihuman REX-1 primary antibody diluted 1:5 in 1.5% goat serum for 45-60 min. at room temperature, and then with 100 μL of horseradish peroxidase (HRP) conjugated goat anti-rabbit secondary antibody (SuperPicture, Zymed, San Francisco, Calif.) for 30 minutes at room temperature. Color was developed with the 3,3′-diaminobenzidine chromogen substrate, followed by counterstaining with hematoxylin (Vector). The negative control normal and tumor sections were treated identically to all other sections, with the exception that 1.5% normal goat serum was used in place of the primary antibody. […] All samples were analyzed using this identical protocol with the same reagents. The staining procedures were repeated at least three times with similar results.

Compound: CC1=C(/C=C/C(C)=C/C=C/C(C)=C/C(=O)O)C(C)(C)CCC1 [RA, All-trans-retinoic acid]
- level of human REX-1 protein following RA treatment (human REX-1 protein [1]): did not alter; also recorded: unaltered
- expression of hRex1 following RA treatment (hRex1): not reduced
- expression of hRex1 following RA treatment (hRex1; listed as retinoic acid): does not decrease
- level of human REX-1 protein following RA treatment (human REX-1 protein [2]): did not alter; also recorded: unaltered

Compound: SNNLKAHILTHANTNKNEQEGK (listed as Homo sapiens) [free human REX-1 peptide]
- REX-1 antibody staining in presence of free peptide [3]: staining was eliminated
